Measured values published in US9006295B2, “Process for bacterial stabilizing of aqueous ground natural calcium carbonate and/or precipitated calcium carbonate and/or dolomite and/or surface-reacted calcium carbonate-comprising mineral preparations” (Omya International AG, priority 2009, dated 2015).
Entries after “also recorded” stand apart in the source; their conditions may differ.

Key:
[1] = test system: mixture of Pseudomonas species containing predominantly Pseudomonas putida and Pseudomonas stutzeri that are resistant to BM2; test: Biocidal activity in slurry, BM2-resistant bacteria; type: cell-based; details: GNCCS1 slurry
Method: (§1) All quoted bacterial counts (Total Viable Count (TVC) values are in cfu/ml) in the Tables herebelow are determined after 5 days following plate-out and in accordance with counting method described in “Bestimmung von aeroben mesophilen Keimen”, Schweizerisches Lebensmittelbuch, chapter 56, section 7.01, edition of 1985, revised version of 1988.
BM2 and AMP were introduced into 50 g samples of each of the slurries indicated in Table 5 in the listed amounts (quoted in ppm based on the weight of the aqueous phase in the slurry). A reference was prepared according to the same protocol but in absence of AMP. References were prepared according to the same protocol but in absence of AMP and in absence of AMP and BM2.
(§2) The slurry samples were then inoculated with 1 ml of a mixture of Pseudomonas species containing predominantly Pseudomonas putida and Pseudomonas stutzeri that are resistant to BM2. Each of the samples was incubated at 30° C. for 72 hours. Thereafter, a 1:10 dilution in phosphate buffered saline (PBS) was plated on plate count agar (PCA). These plates were incubated at 30° C. and analysed after 5 days.
Biocide mixture 2 (BM2) is an aqueous solution containing 85% by weight of EGHF and 1.5% by weight of a combination of CIT and MIT (in a weight ratio CIT:MIT of 3:1), relative to the total solution weight. […]

[2] = test system: Pseudomonas aeruginosa; details: in combination with 500 ppm of triazine biocide; TSB-based plates; cited from earlier work
[3] = test system: mixture of Pseudomonas species containing predominantly Pseudomonas putida and Pseudomonas stutzeri; test: Biocidal activity in slurry (Total Viable Count after inoculation); type: cell-based; details: GNCCS1 slurry; Tables 1, 2 and 4
Method: as §1
Biocide mixture 1 (BM1) is an aqueous solution containing 24% by weight of GDA and 1.5% by weight of a combination of CIT and MIT (in a weight ratio CIT:MIT of 3:1), relative to the total solution weight. BM1 and AMP were introduced into 50 g samples of each of the slurries indicated in Table 1 in the listed amounts (quoted in ppm based on the weight of the aqueous phase in the slurry). References were prepared according to the same protocol but in absence of AMP and in absence of AMP and BM1.
as §2, with “stutzeri.” for “stutzeri that are resistant to BM2.”, “days. […]” for “days.”

[4] = test system: mixture of Pseudomonas species containing predominantly Pseudomonas putida and Pseudomonas stutzeri that are resistant to BM1; test: Biocidal activity in slurry, BM1-resistant bacteria; type: cell-based; details: GNCCS1 slurry
Method: as §1
BM1 and AMP were introduced into 50 g samples of each of the slurries indicated in Table 3 in the listed amounts (quoted in ppm based on the weight of the aqueous phase in the slurry). References were prepared according to the same protocol but in absence of AMP and in absence of AMP and BM1.
as §2, with “BM1.” for “BM2.”
Biocide mixture 1 (BM1) is an aqueous solution containing 24% by weight of GDA and 1.5% by weight of a combination of CIT and MIT (in a weight ratio CIT:MIT of 3:1), relative to the total solution weight. […]

[5] = test system: mixture of Pseudomonas species containing predominantly Pseudomonas putida and Pseudomonas stutzeri that are resistant to OPP; test: Biocidal activity in slurry, OPP-resistant bacteria; type: cell-based; details: GNCCS1 slurry
Method: as §1
OPP, in the form of an aqueous solution having a concentration of 45%, and MEA were introduced into 50 g samples of each of the slurries indicated in Table 11 in the listed amounts (quoted in ppm active content based on the weight of the aqueous phase in the slurry). A reference was prepared according to the same protocol but in absence of MEA. References were prepared according to the same protocol but in absence of MEA and in absence of MEA and OPP.
as §2, with “OPP.” for “BM2.”
Test 59 below represents the same slurry as Test 58, but following a second inoculation of 1 ml of a mixture of Pseudomonas species. […]

Compound | biocide enhancement (in words) [1] | amount of AMP needed to significantly influence the growth rate of the bacteria [2] | biocide enhancement (in words) [3] | biocide enhancement (in words) [4] | biocide enhancement (in words) [5]
CC(C)(N)CO [AMP, 2-amino-2-methyl-1-propanol] | enhances the biocide function of BM2 | more than 4 000 ppm | enhances the biocide function of BM1; also recorded: enhances the biocide function of BM2 | – | –
NCCO [MEA, 2-aminoethanol] | enhances the biocide function of BM2 | – | – | enhances the biocide function of BM1 | enhances the biocide function of OPP
